What was measured:
human MR (hMR) [1] = target: T1, human MR (hMR) (Homo sapiens, UniProt P08235); experiment: MR gene reporter transactivation assay in transiently transfected COS-7 cells; type: cell-based; settings: 1,4-DHP derivative 5 μM, 10 nM aldosterone stimulation
T1 construct: expressed in transfected cells; host or cells: COS-7
T1 sequence (P08235 1-984): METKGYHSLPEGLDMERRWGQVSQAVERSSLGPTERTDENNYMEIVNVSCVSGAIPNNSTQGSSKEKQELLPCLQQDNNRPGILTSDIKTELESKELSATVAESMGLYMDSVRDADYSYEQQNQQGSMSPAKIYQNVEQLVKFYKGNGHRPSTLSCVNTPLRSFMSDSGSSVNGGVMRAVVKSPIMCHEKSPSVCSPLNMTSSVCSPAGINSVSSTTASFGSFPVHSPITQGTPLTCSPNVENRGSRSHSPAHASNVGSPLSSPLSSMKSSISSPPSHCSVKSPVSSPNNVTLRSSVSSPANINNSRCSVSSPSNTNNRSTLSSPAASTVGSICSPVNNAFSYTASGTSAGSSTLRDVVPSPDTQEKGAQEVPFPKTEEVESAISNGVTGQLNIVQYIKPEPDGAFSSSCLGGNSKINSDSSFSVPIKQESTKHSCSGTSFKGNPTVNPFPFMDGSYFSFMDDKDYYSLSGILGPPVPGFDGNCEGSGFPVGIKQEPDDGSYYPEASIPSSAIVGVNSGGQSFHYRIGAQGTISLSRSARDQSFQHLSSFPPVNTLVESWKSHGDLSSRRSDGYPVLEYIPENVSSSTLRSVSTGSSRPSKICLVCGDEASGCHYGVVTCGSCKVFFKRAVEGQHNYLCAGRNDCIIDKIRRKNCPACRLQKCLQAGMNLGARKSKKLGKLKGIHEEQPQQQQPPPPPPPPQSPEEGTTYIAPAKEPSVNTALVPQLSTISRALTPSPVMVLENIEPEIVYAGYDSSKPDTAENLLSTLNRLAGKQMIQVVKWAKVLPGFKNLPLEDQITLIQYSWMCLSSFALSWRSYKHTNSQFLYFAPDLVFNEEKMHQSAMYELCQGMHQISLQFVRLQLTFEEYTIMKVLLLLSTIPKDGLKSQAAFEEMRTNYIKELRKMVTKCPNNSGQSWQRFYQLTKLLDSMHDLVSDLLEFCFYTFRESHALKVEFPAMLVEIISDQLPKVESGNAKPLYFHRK
Method: Receptor transcriptional activity was assessed using a transactivation gene reporter assay, as described. Briefly, COS-7 cells were seeded on 96-well plates in DMEM supplemented with 10% charcoal-stripped FBS (Biowest, Nuaillé, France). Twenty-four hours after seeding, cells were transfected with pcDNA3-hMR, pcDNA3-hGR, or pCMV-FLAG-hAR in combination with pSG5-luc and pSG5-ren in a 5:4:1 proportion, respectively. […] After 2 h of incubation, cells were further treated with agonists (1 × 10^−8 M aldosterone; 1 × 10^−8 M testosterone or 0.5 × 10^−6 M cortisol) in the presence of each compound for 16 h. […] MR maximum and minimum activity were obtained in each assay using conditions with 1 × 10^−9 M aldosterone or vehicle (ethanol). Each condition was performed in three parallel wells. After treatments, firefly and Renilla luciferase activities were measured sequentially in the cell lysates using a commercially available kit (Dual-Glo; Promega, Madison, WI, USA). Receptor transcriptional activity was calculated as the ratio luc/ren. The activities in each condition were normalized to the activity obtained with vehicle or with agonist as indicated in each figure panel and are expressed a as percentage of the maximum value ± SD.

human MR (hMR) [2] = target: T1, human MR (hMR); experiment: [3H]-aldosterone displacement from human MR, ligand-receptor binding assay in transfected COS-7 cells; settings: 1 nM [3H]-aldosterone, increasing concentrations of unlabeled ligand, one-site model
Method: Ligand-receptor binding assays were performed as described before. Briefly, COS-7 cells were seeded on 24-well plates and transfected with plasmid pcDNA3-hMR. Twenty-four hours after transfection, cells were washed once with serum-free DMEM and incubated for 2 h in 500 μL of the same medium containing the indicated concentration of each compound. After this initial period, cells were further incubated with the indicated compounds and 1 × 10^−9 M [^3H]-aldosterone (PerkinElmer Life Sciences, Waltham, MA, USA) for one additional hour. Cells were then washed twice with phosphate-buffered saline (PBS: 137 mM NaCl, 2,7 mM KCl, 10 mM Na2HPO4, 1.8 mM KH2PO4, pH 7.4) and then extracted with 200 μL of an ethanol:water mix (4:1, v:v). Disintegrations were recorded using liquid scintillation in a β counter. Control conditions included non-transfected cells, transfected cells treated with unlabeled aldosterone or transfected cells, treated with 1 nM [^3H]-aldosterone in the presence of 1 × 10^−5 M unlabeled aldosterone. Specific binding was determined by subtracting the number of disintegrations per minute (dpm) in the presence of 1 × 10^−5 M unlabeled aldosterone from the condition with 1 nM [^3H]-aldosterone. Each condition was performed in triplicate. Competition of each compound for 1 nM [^3H]-aldosterone binding was calculated as the percentage of the maximum binding obtained in the absence of compound.

human AR = target: T2, human AR (Homo sapiens, UniProt P10275); experiment: AR reporter gene transactivation assay in COS-7 cells; type: cell-based; settings: 5 μM derivative, stimulation by 10 nM testosterone
T2 construct: Plasmid pCMV-FLAG-hAR, expressing full-length human AR; host or cells: COS-7
T2 sequence (P10275 1-920): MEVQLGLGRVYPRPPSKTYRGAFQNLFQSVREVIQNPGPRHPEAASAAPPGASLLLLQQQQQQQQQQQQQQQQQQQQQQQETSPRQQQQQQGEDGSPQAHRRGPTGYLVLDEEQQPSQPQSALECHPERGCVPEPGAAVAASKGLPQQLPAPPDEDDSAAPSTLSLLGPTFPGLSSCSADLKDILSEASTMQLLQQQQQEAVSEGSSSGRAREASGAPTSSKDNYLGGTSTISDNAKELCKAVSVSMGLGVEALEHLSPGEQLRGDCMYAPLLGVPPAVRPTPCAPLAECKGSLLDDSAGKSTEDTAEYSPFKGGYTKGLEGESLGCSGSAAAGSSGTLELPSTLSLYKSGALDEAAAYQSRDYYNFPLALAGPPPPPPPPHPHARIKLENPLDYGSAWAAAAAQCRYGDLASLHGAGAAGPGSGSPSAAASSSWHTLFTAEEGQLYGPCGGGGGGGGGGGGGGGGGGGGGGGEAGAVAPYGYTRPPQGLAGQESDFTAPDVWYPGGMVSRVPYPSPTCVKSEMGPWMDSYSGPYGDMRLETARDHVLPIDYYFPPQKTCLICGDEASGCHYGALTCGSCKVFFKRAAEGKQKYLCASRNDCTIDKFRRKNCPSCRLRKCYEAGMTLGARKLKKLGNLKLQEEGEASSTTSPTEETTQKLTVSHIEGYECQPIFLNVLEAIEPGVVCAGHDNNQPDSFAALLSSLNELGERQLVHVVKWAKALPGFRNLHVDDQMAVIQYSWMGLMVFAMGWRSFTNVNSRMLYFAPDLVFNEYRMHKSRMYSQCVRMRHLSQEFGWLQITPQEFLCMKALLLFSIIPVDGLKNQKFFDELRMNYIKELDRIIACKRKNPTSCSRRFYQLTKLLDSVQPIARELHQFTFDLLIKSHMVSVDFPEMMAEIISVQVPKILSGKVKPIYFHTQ
Method: Receptor transcriptional activity was assessed using a transactivation gene reporter assay, as described. Briefly, COS-7 cells were seeded on 96-well plates in DMEM supplemented with 10% charcoal-stripped FBS (Biowest, Nuaillé, France). Twenty-four hours after seeding, cells were transfected with pcDNA3-hMR, pcDNA3-hGR, or pCMV-FLAG-hAR in combination with pSG5-luc and pSG5-ren in a 5:4:1 proportion, respectively. […] After 2 h of incubation, cells were further treated with agonists (1 × 10^−8 M aldosterone; 1 × 10^−8 M testosterone or 0.5 × 10^−6 M cortisol) in the presence of each compound for 16 h. Assays using hMR included a control condition with 0.25 × 10^−6 M eplerenone. MR maximum and minimum activity were obtained in each assay using conditions with 1 × 10^−9 M aldosterone or vehicle (ethanol). Each condition was performed in three parallel wells. After treatments, firefly and Renilla luciferase activities were measured sequentially in the cell lysates using a commercially available kit (Dual-Glo; Promega, Madison, WI, USA). Receptor transcriptional activity was calculated as the ratio luc/ren. The activities in each condition were normalized to the activity obtained with vehicle or with agonist as indicated in each figure panel and are expressed a as percentage of the maximum value ± SD.

MR activity, % of the maximal activity (human MR (hMR) [1]): 57%
Ki (human MR (hMR) [2]): 262 nM
decrease of AR activation (human AR): 15%
SMILES: COC(=O)C1=C(CNC(=O)OCc2ccccc2)NC(C)=C(C#N)C1c1ccc(C#N)cc1OC (stereo not drawn) [Compound 16, Methyl 2-[(benzyloxycarbonyl)amino]methyl-5-cyano-4-(4-cyano-2-methoxy)phenyl-6-methyl-1,4-dihydropyridine-3-carboxylate]

Reference: PMC9917360, “Novel 1,4-Dihydropyridine Derivatives as Mineralocorticoid Receptor Antagonists” (International Journal of Molecular Sciences, 2023)
